The target of experiment [1] is Ribosomal protein S6 kinase alpha-5 (Homo sapiens) (UniProt O75582). As to the kind of experiment: Inhibition of C-terminal RPS6KA5 kinase domain 2 (unknown origin) at 1 uM by Ambit Kinomescan binding assay relative to control.
Experiment [2] addresses T1, Serine/threonine-protein kinase D3 (Homo sapiens) (UniProt O94806).
T1 sequence (whole entry): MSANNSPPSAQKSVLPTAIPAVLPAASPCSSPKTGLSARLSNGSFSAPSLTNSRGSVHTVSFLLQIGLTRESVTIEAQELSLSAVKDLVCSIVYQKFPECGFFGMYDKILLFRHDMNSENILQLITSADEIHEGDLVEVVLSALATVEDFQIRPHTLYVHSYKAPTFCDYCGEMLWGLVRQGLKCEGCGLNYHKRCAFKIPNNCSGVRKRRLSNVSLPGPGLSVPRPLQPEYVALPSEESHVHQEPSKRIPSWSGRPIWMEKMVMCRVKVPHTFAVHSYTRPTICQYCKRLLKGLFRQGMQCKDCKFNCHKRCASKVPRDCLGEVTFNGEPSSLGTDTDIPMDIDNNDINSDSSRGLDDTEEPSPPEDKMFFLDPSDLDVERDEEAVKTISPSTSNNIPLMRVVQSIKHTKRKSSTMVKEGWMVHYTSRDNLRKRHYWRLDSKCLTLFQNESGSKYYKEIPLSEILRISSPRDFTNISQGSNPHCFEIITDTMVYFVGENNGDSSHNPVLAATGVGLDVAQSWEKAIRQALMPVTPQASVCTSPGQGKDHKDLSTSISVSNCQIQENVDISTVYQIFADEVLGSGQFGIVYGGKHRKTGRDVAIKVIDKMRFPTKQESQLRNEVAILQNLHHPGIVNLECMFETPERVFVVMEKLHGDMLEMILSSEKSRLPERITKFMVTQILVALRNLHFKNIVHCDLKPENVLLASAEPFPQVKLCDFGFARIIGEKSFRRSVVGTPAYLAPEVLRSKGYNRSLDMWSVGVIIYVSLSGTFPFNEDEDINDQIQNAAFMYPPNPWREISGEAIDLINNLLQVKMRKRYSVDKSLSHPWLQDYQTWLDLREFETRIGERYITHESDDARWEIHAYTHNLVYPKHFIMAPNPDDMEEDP
As to the kind of experiment: Inhibition of PKD3 Lys2 labeling site in human A-375 cells at 5 uM by KiNativ Profiling analysis relative to control. The experiment is classed as cell-based.

For experiment [3], the target named is Serine/threonine-protein kinase mTOR (Homo sapiens) (UniProt P42345). As to the kind of experiment: Inhibition of FRAP ATP labeling site in human A-375 cells at 0.05 uM by KiNativ Profiling analysis relative to control. The experiment is classed as cell-based.
The target of experiment [4] is T2, Serine/threonine-protein kinase STK11 (Homo sapiens) (UniProt Q15831).
T2 sequence (whole entry): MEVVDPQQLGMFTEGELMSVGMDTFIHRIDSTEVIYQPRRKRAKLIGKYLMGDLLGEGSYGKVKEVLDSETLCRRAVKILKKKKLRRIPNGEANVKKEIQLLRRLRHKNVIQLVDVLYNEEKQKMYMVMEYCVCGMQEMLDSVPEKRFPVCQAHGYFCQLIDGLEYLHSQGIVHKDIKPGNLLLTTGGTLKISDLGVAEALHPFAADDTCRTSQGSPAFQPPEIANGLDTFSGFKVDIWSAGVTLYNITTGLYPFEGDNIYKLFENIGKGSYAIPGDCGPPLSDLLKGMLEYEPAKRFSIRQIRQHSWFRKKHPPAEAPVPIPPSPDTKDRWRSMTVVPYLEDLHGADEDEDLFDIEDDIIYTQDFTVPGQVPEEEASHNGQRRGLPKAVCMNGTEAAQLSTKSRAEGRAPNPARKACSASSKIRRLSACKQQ
As to the kind of experiment: Inhibition of LKB1 (unknown origin) at 1 uM by Ambit Kinomescan binding assay relative to control; values are per cent of control.

The target of experiment [5] is Leucine-rich repeat serine/threonine-protein kinase 2 (Homo sapiens) (UniProt Q5S007). Nature of the experiment: Inhibition of LRRK2 (unknown origin) at 1 uM by Ambit Kinomescan binding assay relative to control; values are per cent of control.
Experiment [6] relates to Proto-oncogene tyrosine-protein kinase receptor Ret (Homo sapiens), P07949 [M918T]. Nature of the experiment: Inhibition of RET M918T mutant (unknown origin) at 1 uM by Ambit Kinomescan binding assay relative to control; values are per cent of control.
Proto-oncogene tyrosine-protein kinase receptor Ret (Homo sapiens), P07949 [M918T], sequence (P07949 whole entry M918T): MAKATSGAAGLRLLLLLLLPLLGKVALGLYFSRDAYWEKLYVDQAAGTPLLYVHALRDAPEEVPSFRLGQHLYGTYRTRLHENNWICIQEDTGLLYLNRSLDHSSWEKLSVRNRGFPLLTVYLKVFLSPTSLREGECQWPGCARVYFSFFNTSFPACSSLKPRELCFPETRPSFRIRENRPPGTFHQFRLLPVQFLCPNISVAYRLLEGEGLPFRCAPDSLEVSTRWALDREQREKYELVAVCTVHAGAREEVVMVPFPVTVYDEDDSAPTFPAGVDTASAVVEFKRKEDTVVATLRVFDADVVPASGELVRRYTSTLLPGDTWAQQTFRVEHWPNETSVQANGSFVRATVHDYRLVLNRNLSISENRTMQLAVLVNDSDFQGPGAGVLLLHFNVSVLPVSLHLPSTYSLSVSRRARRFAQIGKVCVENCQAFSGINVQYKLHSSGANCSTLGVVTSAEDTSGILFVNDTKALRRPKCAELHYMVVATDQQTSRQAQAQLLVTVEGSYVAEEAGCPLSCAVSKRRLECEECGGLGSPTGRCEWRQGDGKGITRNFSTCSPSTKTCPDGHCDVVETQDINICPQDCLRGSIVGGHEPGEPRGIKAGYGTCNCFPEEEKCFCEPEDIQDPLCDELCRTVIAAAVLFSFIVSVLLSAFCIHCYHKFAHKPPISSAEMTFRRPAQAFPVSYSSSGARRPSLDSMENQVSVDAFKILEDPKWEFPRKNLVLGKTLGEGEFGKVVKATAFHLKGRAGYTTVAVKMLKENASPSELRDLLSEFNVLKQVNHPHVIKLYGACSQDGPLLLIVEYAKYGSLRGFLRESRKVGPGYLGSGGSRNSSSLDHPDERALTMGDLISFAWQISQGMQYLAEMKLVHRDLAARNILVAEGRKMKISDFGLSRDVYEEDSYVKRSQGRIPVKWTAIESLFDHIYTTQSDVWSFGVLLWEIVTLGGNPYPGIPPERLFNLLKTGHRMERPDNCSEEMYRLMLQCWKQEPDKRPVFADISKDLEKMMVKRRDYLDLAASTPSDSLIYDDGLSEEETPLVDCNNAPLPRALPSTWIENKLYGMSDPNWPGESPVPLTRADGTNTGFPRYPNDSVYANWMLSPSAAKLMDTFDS
The test system of experiment [7] is Receptor-type tyrosine-protein kinase FLT3 (Homo sapiens), P36888 [K663Q]. Nature of the experiment: Inhibition of FLT3 K663Q mutant (unknown origin) at 1 uM by Ambit Kinomescan binding assay relative to control; values are per cent of control.
For experiment [8], the target named is Serine/threonine-protein kinase RIO3 (Homo sapiens) (UniProt O14730). Nature of the experiment: Inhibition of RIOK3 (unknown origin) at 10 uM by Ambit Kinomescan binding assay.
Serine/threonine-protein kinase RIO3 (Homo sapiens), sequence (O14730 whole entry): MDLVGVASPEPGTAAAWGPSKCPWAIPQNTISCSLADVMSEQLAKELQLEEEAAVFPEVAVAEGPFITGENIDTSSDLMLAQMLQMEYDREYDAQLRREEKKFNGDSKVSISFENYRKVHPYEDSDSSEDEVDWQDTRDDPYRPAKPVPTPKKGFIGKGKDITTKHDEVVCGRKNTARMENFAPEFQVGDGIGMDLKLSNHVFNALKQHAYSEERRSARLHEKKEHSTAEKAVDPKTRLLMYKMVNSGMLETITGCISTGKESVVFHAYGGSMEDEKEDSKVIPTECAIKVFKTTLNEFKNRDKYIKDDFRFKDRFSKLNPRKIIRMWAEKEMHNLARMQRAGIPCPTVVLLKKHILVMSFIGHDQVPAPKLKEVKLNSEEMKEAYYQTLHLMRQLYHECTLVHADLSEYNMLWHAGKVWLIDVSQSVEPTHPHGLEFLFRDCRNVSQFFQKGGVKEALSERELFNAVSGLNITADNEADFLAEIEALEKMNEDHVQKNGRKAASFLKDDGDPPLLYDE
Experiment [9] deals with Serine/threonine-protein kinase PLK1 (Homo sapiens) (UniProt P53350). As to the kind of experiment: Inhibition of PLK1 Lys2 labeling site in human A-375 cells at 5 uM by KiNativ Profiling analysis relative to control. The experiment is classed as cell-based.
Serine/threonine-protein kinase PLK1 (Homo sapiens), sequence (P53350 whole entry, the tested form may be a part): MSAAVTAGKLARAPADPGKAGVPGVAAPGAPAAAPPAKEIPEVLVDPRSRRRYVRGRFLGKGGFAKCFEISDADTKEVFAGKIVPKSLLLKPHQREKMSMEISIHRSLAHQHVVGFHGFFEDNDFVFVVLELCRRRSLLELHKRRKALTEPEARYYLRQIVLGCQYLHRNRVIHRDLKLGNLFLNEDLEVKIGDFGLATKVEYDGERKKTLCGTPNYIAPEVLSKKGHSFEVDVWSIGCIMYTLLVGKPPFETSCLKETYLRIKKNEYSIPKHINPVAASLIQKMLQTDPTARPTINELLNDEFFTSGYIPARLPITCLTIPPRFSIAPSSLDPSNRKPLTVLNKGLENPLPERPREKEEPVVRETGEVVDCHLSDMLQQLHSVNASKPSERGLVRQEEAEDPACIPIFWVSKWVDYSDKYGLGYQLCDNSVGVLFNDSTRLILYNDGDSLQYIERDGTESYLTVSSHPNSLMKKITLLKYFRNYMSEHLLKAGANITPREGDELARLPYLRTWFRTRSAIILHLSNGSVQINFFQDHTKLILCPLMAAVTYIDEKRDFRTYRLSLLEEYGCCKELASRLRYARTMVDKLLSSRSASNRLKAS
In experiment [10] the target is Tyrosine-protein kinase JAK1 (Homo sapiens) (UniProt P23458). As to the kind of experiment: Inhibition of JAK1 domain2 Lys1 labeling site in human A-375 cells at 0.05 uM by KiNativ Profiling analysis relative to control. It counts as cell-based.
Tyrosine-protein kinase JAK1 (Homo sapiens), sequence (P23458 whole entry, the tested form may be a part): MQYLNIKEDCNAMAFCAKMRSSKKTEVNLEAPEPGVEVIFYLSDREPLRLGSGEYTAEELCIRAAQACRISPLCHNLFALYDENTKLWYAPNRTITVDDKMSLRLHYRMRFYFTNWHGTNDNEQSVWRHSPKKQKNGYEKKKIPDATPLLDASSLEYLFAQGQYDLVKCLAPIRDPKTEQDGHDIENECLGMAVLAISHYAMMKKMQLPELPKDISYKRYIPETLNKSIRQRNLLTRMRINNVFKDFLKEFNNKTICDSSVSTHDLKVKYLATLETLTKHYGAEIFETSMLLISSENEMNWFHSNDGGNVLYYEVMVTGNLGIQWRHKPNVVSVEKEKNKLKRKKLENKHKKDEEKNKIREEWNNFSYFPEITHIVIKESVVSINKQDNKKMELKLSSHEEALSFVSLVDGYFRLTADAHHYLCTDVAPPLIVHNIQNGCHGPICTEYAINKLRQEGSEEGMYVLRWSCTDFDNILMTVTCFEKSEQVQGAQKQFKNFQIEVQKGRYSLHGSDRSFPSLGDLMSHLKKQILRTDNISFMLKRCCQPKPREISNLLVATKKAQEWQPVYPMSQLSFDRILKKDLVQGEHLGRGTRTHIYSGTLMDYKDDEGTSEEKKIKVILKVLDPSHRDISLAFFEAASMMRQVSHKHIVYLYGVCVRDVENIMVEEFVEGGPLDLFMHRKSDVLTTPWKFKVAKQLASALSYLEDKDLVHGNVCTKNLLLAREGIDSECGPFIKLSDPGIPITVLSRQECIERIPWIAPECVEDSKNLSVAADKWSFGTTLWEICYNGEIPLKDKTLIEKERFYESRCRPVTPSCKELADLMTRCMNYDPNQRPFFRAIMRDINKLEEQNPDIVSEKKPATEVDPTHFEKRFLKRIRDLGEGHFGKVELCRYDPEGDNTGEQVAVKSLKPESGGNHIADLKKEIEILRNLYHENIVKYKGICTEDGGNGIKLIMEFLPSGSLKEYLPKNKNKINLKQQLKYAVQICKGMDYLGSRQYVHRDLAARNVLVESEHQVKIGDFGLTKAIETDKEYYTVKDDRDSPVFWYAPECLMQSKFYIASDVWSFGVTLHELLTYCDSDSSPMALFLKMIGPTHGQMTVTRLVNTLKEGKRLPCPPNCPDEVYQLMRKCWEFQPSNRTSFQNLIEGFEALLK
Experiment [11] concerns the target Mitogen-activated protein kinase 7 (Homo sapiens) (UniProt Q13164). As to the kind of experiment: Inhibition of Erk5 K2 labeling site in human Huh-7 cells at 10 uM by KiNativ Profiling analysis relative to control. The experiment is classed as cell-based.
For experiment [12], the target named is T3, Aurora kinase A (Homo sapiens) (UniProt O14965).
T3 sequence (whole entry): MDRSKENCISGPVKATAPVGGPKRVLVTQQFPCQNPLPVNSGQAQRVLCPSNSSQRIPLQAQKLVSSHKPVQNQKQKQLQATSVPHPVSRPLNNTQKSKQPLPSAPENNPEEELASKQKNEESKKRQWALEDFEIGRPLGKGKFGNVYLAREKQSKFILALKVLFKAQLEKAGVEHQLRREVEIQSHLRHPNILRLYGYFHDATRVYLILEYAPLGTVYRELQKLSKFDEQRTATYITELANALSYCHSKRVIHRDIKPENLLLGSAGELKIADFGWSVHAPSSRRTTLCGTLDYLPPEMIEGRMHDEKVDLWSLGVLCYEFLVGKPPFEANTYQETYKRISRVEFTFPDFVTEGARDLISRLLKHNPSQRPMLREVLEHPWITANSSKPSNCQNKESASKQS
As to the kind of experiment: Inhibition of AurA K2 labeling site harbouring DIKPENLLLGSAGELK in human Huh-7 cells at 1 uM by KiNativ Profiling analysis relative to control. It counts as cell-based.

Experiment [13] deals with Serine/threonine-protein kinase 24 (Homo sapiens) (UniProt Q9Y6E0). As to the kind of experiment: Inhibition of MST3 K2 labeling site harbouring DIKAANVLLSEHGEVK in human Huh-7 cells at 1 uM by KiNativ Profiling analysis relative to control. It counts as cell-based.
The target of experiment [14] is Phosphatidylinositol 4-kinase alpha (Homo sapiens) (UniProt P42356). Nature of the experiment: Inhibition of PIK4CA ATP labeling site in human Huh-7 cells at 1 uM by KiNativ Profiling analysis relative to control. It counts as cell-based.

Activity calls are given as the source filed them. No cut-off for these calls is given here.

As a reminder, the inhibition is the drop in the measured response relative to a control, in per cent. The residual activity is the share of the control activity or signal that is left under treatment. Low values mean little activity left, high ones much activity left.

Ribosomal protein S6 kinase alpha-5 (Homo sapiens), sequence (O75582 whole entry, looked up, the tested form may be a part): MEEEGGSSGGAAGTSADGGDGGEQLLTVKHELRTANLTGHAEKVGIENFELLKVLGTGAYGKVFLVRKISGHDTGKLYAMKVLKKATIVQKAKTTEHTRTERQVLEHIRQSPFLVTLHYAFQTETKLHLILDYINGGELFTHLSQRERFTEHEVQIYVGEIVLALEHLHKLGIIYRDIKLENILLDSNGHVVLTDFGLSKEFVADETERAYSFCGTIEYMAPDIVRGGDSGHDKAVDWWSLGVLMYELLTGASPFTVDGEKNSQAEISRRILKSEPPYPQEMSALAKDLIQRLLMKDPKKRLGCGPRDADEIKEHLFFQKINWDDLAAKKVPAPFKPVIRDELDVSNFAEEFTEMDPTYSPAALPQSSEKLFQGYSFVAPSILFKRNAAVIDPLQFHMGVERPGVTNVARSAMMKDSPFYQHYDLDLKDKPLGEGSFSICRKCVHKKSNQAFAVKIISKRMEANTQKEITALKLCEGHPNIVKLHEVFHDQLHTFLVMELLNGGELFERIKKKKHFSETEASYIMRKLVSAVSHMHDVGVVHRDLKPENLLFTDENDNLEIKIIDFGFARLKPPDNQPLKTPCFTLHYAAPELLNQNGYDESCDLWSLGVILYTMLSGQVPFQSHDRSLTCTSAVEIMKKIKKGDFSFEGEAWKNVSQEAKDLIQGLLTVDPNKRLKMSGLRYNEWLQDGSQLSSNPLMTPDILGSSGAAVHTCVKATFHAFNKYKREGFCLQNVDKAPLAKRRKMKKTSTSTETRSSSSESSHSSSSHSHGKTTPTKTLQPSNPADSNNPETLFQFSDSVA
Mitogen-activated protein kinase 7 (Homo sapiens), sequence (Q13164 2-816 limits assumed): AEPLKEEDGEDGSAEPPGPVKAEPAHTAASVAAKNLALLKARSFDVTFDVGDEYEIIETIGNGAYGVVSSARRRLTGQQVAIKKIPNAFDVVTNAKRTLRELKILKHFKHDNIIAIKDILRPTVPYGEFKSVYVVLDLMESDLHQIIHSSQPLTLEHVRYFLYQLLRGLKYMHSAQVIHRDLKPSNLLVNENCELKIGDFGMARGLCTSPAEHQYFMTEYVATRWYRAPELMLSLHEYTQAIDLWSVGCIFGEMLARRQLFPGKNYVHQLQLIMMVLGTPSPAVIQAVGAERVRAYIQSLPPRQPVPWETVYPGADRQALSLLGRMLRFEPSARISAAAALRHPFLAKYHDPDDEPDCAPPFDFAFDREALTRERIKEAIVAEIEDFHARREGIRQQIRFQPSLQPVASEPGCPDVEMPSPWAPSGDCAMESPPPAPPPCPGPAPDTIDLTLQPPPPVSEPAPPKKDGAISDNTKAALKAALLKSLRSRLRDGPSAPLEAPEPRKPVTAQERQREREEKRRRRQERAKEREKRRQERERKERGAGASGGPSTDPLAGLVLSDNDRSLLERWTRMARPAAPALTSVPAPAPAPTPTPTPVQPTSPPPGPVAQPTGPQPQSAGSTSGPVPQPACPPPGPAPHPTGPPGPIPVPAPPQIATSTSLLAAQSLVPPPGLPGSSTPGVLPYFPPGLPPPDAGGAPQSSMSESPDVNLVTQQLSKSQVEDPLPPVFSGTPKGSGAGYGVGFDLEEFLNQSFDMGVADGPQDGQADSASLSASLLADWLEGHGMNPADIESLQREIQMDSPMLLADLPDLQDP

For the molecule `CCN1CCN(Cc2ccc(NC(=O)c3ccc(C)c(/C=C/c4cnc5[nH]ccc5c4OC)c3)cc2C(F)(F)F)CC1`, the inhibition in experiment [1] was 100%; in experiment [2] it was 7.3%; in [3], -7.6%. Besides, the residual activity in experiment [4] came to 58%; in experiment [5], 53%; in experiment [7] it was 0.15%. Also, in experiment [6], the % of control turned out to be 0.05%.

`CCN1CCN(Cc2ccc(NC(=O)c3ccc(C)c(Oc4ccnc5[nH]ccc45)c3)cc2C(F)(F)F)CC1`: the inhibition result in experiment [8] is “inactive”. Further, the inhibition in experiment [9] is 17.6%; in [10] it was 17.4%; in [11] it was 12.4%; in experiment [12], 0.9%; in [13] it was -7.8%; in experiment [14] it was 3.5%.

Source of the values: ChEMBL document CHEMBL5696442, “Discovery of type II inhibitors of TGFβ-activated kinase 1 (TAK1) and mitogen-activated protein kinase kinase kinase kinase 2 (MAP4K2)” (J Med Chem, 2015).
